Measured values as given in patent US20080282364A1, “Phosphodiesterase 9 Inhibition as Treatment for Obesity-Related Conditions” (priority 2003, published 2008).

System: ob/ob mice
Assay: Effect of pharmacologic PDE9 inhibition on body weight, food intake and plasma metabolites in ob/ob mice
Type: in vivo, mouse
Details: female ob/ob mice
Description: On Day 1, plasma glucose was determined via retro-orbital blood samples. 25 μL of blood was added to 100 μL of 0.025 percent heparinized-saline in microtubes (Denville Scientific, Inc., Metuchen, N.J.). The tubes were spun at the highest setting in a Beckman Microfuge 12 for 2 minutes. Plasma was collected for plasma glucose and triglyceride determination, as further described below. During the course of the study, body weight and food consumption were assessed, and blood samples were taken at approximately 8 am for plasma glucose and triglyceride measures, as further described below.
Plasma glucose, triglycerides, and fructosamine were measured using the Roche/Hitachi 912 Clinical Chemistry Analyzer (Roche Diagnostics Corp., Indianapolis, Ind.). Plasma cGMP was measured using the BioTrak™ enzyme-immunoassay system (Amersham, Piscataway, N.J.). Plasma insulin was assessed via a similar technique using the Mercodia ELISA Insulin kit supplied by ALPCO (Uppsala, Sweden). All assays were conducted according to each manufacturer's instructions.
Female ob/ob mice obtained from Jackson Laboratories (Bar Harbor, Me.) were used at 6 to 10 weeks of age. Mice were housed five per cage and allowed free access to water and, initially, to D11 mouse chow. Following a one week acclimation period, mice were switched to a powdered diet (Mouse Breeder/Auto-JL K20 mouse chow, PMI Feeds, Inc., St. Louis, Mo.) for three days and allowed to adapt to the diet prior to the start of the PDE9 inhibitor dosing period.
The PDE9 inhibitor compound (Compound A) was administered in powdered mouse chow that was custom ground (Research Diets, Inc., New Brunswick, N.J.) as a compound/chow admixture; compounds were mixed with the chow to achieve consumption of the specified doses ranging from 1-200 mg/kg/day. In addition to a compound-free control group, a group consuming darglitazone (1 mg/kg/day) was also included as a positive control.
Mice were randomly assigned to groups of ten with five mice per cage. Body weight was determined on Day 0 and weekly thereafter. On Day 1, retro-orbital blood samples were obtained and plasma glucose was determined as previously described. On the final day of the study, blood samples were taken for glucose, triglyceride, insulin, and cGMP measurements, as previously described.

**Q.** CC(C)c1n[nH]c2c(=O)[nH]c(Cc3ccccc3OCCN3CCOCC3)nc12 [Compound A, 3-isopropyl-5-[2-(2-morpholin-4-yl-ethoxy)-benzyl]-1,6-dihydro-pyrazolo[4,3-d]pyrimidin-7-one] was tested. Which plasma glucose (100 mg/kg/day (FIG. 10)) did it give?
**A.** decreased

**Q.** What about the plasma triglycerides (100 mg/kg/day (FIG. 11)) of the same compound?
**A.** decreased

**Q.** And the body weight gain (100 mg/kg/day in chow, compared to compound-free control diet or darglitazone-treated diet (FIG. 7))?
**A.** reduced body weight gain

**Q.** And the plasma fructosamine (100 mg/kg/day, Day 16 (FIG. 12))?
**A.** decreased

**Q.** And the food intake (100 mg/kg/day, later stages of the study (FIG. 9))?
**A.** no effect on food intake

**Q.** What about the “reducing the normal body weight gain (dose effect)” value (following 2 and 4 days of treatment (FIG. 8A)) of the same compound?
**A.** dose-dependent effect

**Q.** What about the “reducing food intake (dose effect)” value (following 2 and 4 days of treatment (FIG. 8B)) of the same compound?
**A.** dose-dependent effect
